Results taken from article PMC6893700 (Viruses, 2019).
Where two headings read alike, the source gives them in different places.

Experiments:
[1] = in vitro; details: African green monkey
[2] = test system: ZIKV strain PRVABC59; assay type: cell-based, Zika virus (ZIKV); details: for IC50: Zika virus, Vero C1008, ZIKV PRVABC59, Vero E6, natural product without combination, read-out: IC50 Alone; for Fold of Enhancement (natural product with gossypol) / CI (combination index) of gossypol with the named natural product: ZIKV PRVABC59; for Fold of Enhancement (natural product with gossypol): (IC50 alone)/(IC50 in the mixture)—1; for CI (combination index) of gossypol with the named natural product: CI < 1 synergy
[3] = test system: ZIKV strain PAN2016; assay type: cell-based, Zika virus (ZIKV); details: for IC50: Zika virus, Vero C1008, ZIKV PAN2016, Vero E6, natural product without combination, read-out: IC50 Alone; for Fold of Enhancement (natural product with gossypol) / CI (combination index) of gossypol with the named natural product: ZIKV PAN2016; for Fold of Enhancement (natural product with gossypol): (IC50 alone)/(IC50 in the mixture)—1; for CI (combination index) of gossypol with the named natural product: CI < 1 synergy
[4] = test system: ZIKV strain R116265; experiment: Plaque reduction inhibition assay, ZIKV R116265 in Vero E6 cells; assay type: cell-based; details: Zika virus, Vero C1008
[5] = target: T1, ZIKV envelope protein domain III (EDIII) protein (Zika virus, UniProt A0A024B7W1); assay type: binding
T1 construct: E residues 298–409 fused with a C-terminal human Fc; made in house
T1 sequence (A0A024B7W1 588-699): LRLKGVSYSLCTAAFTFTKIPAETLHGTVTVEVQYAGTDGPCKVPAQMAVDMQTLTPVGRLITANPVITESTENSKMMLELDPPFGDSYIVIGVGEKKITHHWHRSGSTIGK

[6] = test system: ZIKV mosquito strain MEX 2–81; experiment: Plaque reduction inhibition assay, ZIKV MEX 2–81 in Vero E6 cells; assay type: cell-based; details: Zika virus, Vero C1008; plaque reduction, Vero E6 cells; read-out: IC50 MEX 2–81
[7] = test system: ZIKV strain PAN2015; experiment: Plaque reduction inhibition assay, ZIKV PAN2015 in Vero E6 cells; assay type: cell-based; details: Zika virus, Vero C1008
[8] = test system: ZIKV strain FLR; experiment: Plaque reduction inhibition assay, ZIKV FLR in Vero E6 cells; assay type: cell-based; details: Zika virus, Vero C1008; plaque reduction, Vero E6 cells; read-out: IC50 FLR
[9] = test system: ZIKV strain PAN2016; experiment: Plaque reduction inhibition assay, ZIKV PAN2016 in Vero E6 cells; assay type: cell-based; details: Zika virus, Vero C1008, Vero E6 cells; for IC50: plaque reduction, read-out: IC50 PAN2016; for IC90: 90% plaque reduction, read-out: IC90 against ZIKV PAN2016 strain
[10] = test system: ZIKV strain PRVABC59; experiment: Plaque reduction inhibition assay, ZIKV PRVABC59 in Vero E6 cells; assay type: cell-based; details: Zika virus, Vero C1008; plaque reduction, Vero E6 cells
[11] = test system: ZIKV strain FLR; assay type: cell-based, Zika virus (ZIKV); details: ZIKV FLR; for IC50: Zika virus, Vero C1008, Vero E6, natural product without combination, read-out: IC50 Alone; for Fold of Enhancement (natural product with gossypol): (IC50 alone)/(IC50 in the mixture)—1; for CI (combination index) of gossypol with the named natural product: CI < 1 synergy
[12] = in vitro; details: African green monkey; remark: listed apart in the source
[13] = target: ZIKV full-length E protein (Zika virus, UniProt A0A024B7W1); assay type: binding; details: ELISA
Sequence of ZIKV full-length E protein (A0A024B7W1 291-794): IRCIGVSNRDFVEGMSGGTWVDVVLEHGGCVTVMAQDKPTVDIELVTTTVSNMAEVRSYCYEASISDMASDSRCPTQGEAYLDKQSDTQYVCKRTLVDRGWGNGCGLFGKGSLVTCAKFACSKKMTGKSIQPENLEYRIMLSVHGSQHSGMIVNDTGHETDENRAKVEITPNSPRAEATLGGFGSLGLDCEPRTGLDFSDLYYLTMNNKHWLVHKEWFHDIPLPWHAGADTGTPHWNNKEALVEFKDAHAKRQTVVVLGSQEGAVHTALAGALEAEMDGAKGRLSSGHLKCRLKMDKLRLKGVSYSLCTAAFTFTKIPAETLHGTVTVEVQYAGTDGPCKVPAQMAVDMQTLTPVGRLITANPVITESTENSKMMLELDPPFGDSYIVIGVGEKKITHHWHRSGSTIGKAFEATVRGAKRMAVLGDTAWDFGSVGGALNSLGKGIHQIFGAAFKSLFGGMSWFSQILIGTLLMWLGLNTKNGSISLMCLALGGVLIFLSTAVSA

[14] = test system: ZIKV strain IbH 30656; experiment: Plaque reduction inhibition assay, ZIKV IbH 30656 in Vero E6 cells; assay type: cell-based; details: Zika virus, Vero C1008; plaque reduction, Vero E6 cells; read-out: IC50 IbH 30656
[15] = test system: ZIKV rhesus macaque strain MR 766; experiment: Plaque reduction inhibition assay, ZIKV MR 766 in Vero E6 cells; assay type: cell-based; details: Zika virus, Vero C1008, in Macaca mulatta; plaque reduction, Vero E6 cells; read-out: IC50 MR 766
[16] = test system: ZIKV strain PLCal_ZV; experiment: Plaque reduction inhibition assay, ZIKV PLCal_ZV in Vero E6 cells; assay type: cell-based; details: Zika virus, Vero C1008; plaque reduction, Vero E6 cells; read-out: IC50 PLCal_ZV
[17] = test system: ZIKV (PAN2016); experiment: Time-of-addition experiment, ZIKV PAN2016 in Vero E6 cells; assay type: cell-based, Zika virus (ZIKV); details: for inhibition at 30 µM: Zika virus
[18] = test system: Vero E6 cells; experiment: Combinatorial cytotoxicity of gossypol with other natural products, CCK8; details: Vero E6, (CC50 alone)/(CC50 in the mixture)—1
[19] = in vitro; details: rhesus monkey
[20] = test system: DENV-4-PR 06-65-740; experiment: Plaque reduction inhibition assay, DENV-4 in LLC-MK2 cells; assay type: cell-based; details: Dengue virus, DENV4
[21] = test system: Vero E6 cells
[22] = test system: DENV-3-V1043; experiment: Plaque reduction inhibition assay, DENV-3 in LLC-MK2 cells; assay type: cell-based; details: Dengue virus, DENV3
[23] = test system: DENV-1-V1792; experiment: Plaque reduction inhibition assay, DENV-1 in LLC-MK2 cells; assay type: cell-based; details: Dengue virus, DENV1
[24] = test system: ZIKV strain R103451; experiment: Plaque reduction inhibition assay, ZIKV R103451 in Vero E6 cells; assay type: cell-based; details: Zika virus, Vero C1008; plaque reduction, Vero E6 cells; read-out: IC50 R103451
[25] = test system: DENV-2-V594; experiment: Plaque reduction inhibition assay, DENV-2 in LLC-MK2 cells; assay type: cell-based; details: Dengue virus, DENV2
[26] = Vero C1008, 1 h, read-out: inhibition of ZIKV infection, step d: cotreatment at 37 °C

Structure (SMILES)	CC50 at 3 days [1]	IC50 [2]	IC50 [3]	IC50 [4]	binding to ZIKV EDIII protein (in words) ([5]; ELISA)	IC50 [6]	IC50 [7]	IC50 [8]	IC50 [9]	IC50 [10]	IC50 [11]	CC50 at 3 days [12]	binding to ZIKV full-length E protein (in words) [13]	IC50 [14]	IC50 [15]	IC50 [16]	inhibition at 30 µM [17, 26]	Fold of Enhancement of cytotoxicity (natural product with gossypol) [18]	CC50 at 3 days [19]	Fold of Enhancement (natural product with gossypol) [2]	further results
CC(C)C[C@H](NC(=O)[C@H](Cc1ccccc1)NC(=O)c1cnccn1)B(O)O [Bortezomib, bortezomib, reference compound]	17.77 ± 0.17 µM	12.17 ± 0.07 µM	10.65 ± 0.01 µM	8.94 ± 0.1 µM	did not bind	7.67 ± 0.31 µM	9.88 ± 0.12 µM	9.62 ± 0.59 µM	9.75 ± 0.03 µM	11.7 ± 0.82 µM	9.7 ± 0.76 µM	17 ± 0.2 µM	did not bind	9.35 ± 0.23 µM	9.51 ± 0.26 µM	31 ± 0.71 µM	–	–	–	–	–
COc1cc(/C=C/C(=O)CC(=O)/C=C/c2ccc(O)c(OC)c2)ccc1O [Curcumin, curcumin]	53.1 ± 1.83 µM	12.46 ± 0.05 µM	13.2 ± 0.81 µM	14 ± 0.15 µM	much lower binding affinity	5.62 ± 0.52 µM	13.7 ± 0.37 µM	16.6 ± 0.34 µM	13.7 ± 0.72 µM	12.8 ± 0.35 µM	17.05 ± 0.08 µM	52.86 ± 0.52 µM	much lower binding affinity	13.6 ± 0.31 µM	11.4 ± 0.29 µM	10.8 ± 0.73 µM	75 to 100%	0.28	59.4 ± 1.18 µM	5.46	inhibition at 30 µM ([17]; Vero C1008, 1 h, read-out: inhibition of ZIKV infection, step c: cotreatment at 4 °C (attachment)): 75 to 100%; inhibition at 30 µM ([17]; Vero C1008, read-out: inhibition of ZIKV infection, step a: pretreatment of ZIKV): 75 to 100%; inhibition of ZIKV infection, step e: penetration (membrane fusion) ([17]; cells with ZIKV 4 °C 1 h, then natural product 37 °C 1 h, gossypol 15 µM, curcumin 30 µM, digitonin 7.5 µM, conessine 30 µM): low to no impact; inhibition of ZIKV infection, step f: postentry stage ([17]; cells with ZIKV 37 °C 1 h, then natural product 37 °C 1 h, gossypol 15 µM, curcumin 30 µM, digitonin 7.5 µM, conessine 30 µM): low to no impact; inhibition of ZIKV infection, step b: pretreatment of cells ([17]; cells with natural product 37 °C 1 h before ZIKV, gossypol 15 µM, curcumin 30 µM, digitonin 7.5 µM, conessine 30 µM): low to no impact; Fold of Enhancement of cytotoxicity (natural product with gossypol) ([18]; listed as curcumin): not enhanced; CI (combination index) of gossypol with the named natural product [2]: 0.30; IC50 [20]: 4.83 ± 0.24 µM; Fold of Enhancement (natural product with gossypol) [3]: 2.60; CI (combination index) of gossypol with the named natural product [3]: 0.52; IC90 [9]: ~47.7 µM; Fold of Enhancement (natural product with gossypol) [11]: 2.84; CI (combination index) of gossypol with the named natural product [11]: 0.49; cytotoxicity in Vero E6 cells observed under a microscope [21]: no obvious cytotoxicity; IC50 [22]: 2.09 ± 0.12 µM; IC50 [23]: 9.37 ± 0.47 µM; IC50 [24]: 11.2 ± 0.37 µM; IC50 [25]: 3.07 ± 0.07 µM
C[C@H]1[C@H]2CC[C@H]3[C@@H]4CC=C5C[C@@H](N(C)C)CC[C@]5(C)[C@H]4CC[C@]23CN1C [Conessine, conessine]	314.6 ± 2.32 µM	9.4 ± 0.21 µM	10 ± 0.25 µM	7.18 ± 0.13 µM	–	10.94 ± 0.06 µM	7.98 ± 0.29 µM	9.65 ± 0.58 µM	9.75 ± 0.26 µM	9.08 ± 0.33 µM	10.1 ± 0.45 µM	323.71 ± 0.25 µM	did not bind	10.2 ± 0.41 µM	7.44 ± 0.11 µM	8.11 ± 0.37 µM	80 to 96%	~5.78	303 ± 13.4 µM	6.29	inhibition at 30 µM ([17]; Vero C1008, 1 h, read-out: inhibition of ZIKV infection, step e: penetration (membrane fusion)): 80 to 96%; inhibition at 30 µM ([17]; Vero C1008, 1 h, read-out: inhibition of ZIKV infection, step f: postentry stage): 80 to 96%; inhibition of ZIKV infection, step c: cotreatment at 4 °C (attachment) ([17]; cells, ZIKV and natural product 4 °C 1 h, gossypol 15 µM, curcumin 30 µM, digitonin 7.5 µM, conessine 30 µM): very low to no effect; inhibition of ZIKV infection, step a: pretreatment of ZIKV ([17]; natural product with ZIKV 37 °C 1 h before cells, gossypol 15 µM, curcumin 30 µM, digitonin 7.5 µM, conessine 30 µM): very low to no effect; CI (combination index) of gossypol with the named natural product [2]: 0.28; IC50 [20]: 7.27 ± 0.31 µM; Fold of Enhancement (natural product with gossypol) [3]: 3.44; CI (combination index) of gossypol with the named natural product [3]: 0.44; binding to ZIKV EDIII protein (in words) [5]: did not bind; IC90 [9]: ~31.8 µM; Fold of Enhancement (natural product with gossypol) [11]: 1.13; CI (combination index) of gossypol with the named natural product [11]: 0.85; cytotoxicity in Vero E6 cells observed under a microscope [21]: no obvious cytotoxicity; IC50 [22]: 7.41 ± 0.04 µM; IC50 [23]: 7.09 ± 0.08 µM; IC50 [24]: 11.6 ± 0.33 µM; IC50 [25]: 6.61 ± 0.6 µM
